“Also recorded” adds a separate entry of the source.
Columns and labels:
Format in all cases: in vivo
[1] = tested on: Bax; experiment: IHC assay of apoptosis-related factor Bax in testis of rats exposed to ZEA; settings: rat testis
Source text: (§1) As described herein, the therapeutic efficacy of the encapsulated RSV nanoparticles can be evaluated based on immunohistochemical assessment of apoptosis-related factors (Bax and Bcl-2) in the testis and the gene expression of constitutive androstane receptor (CAR), a well-known xenobiotic-sensing nuclear receptor in the liver, of rats exposed to a fungal mycotoxin, zearalenone (ZEA). The encapsulated RSV nanoparticles reversed the toxic effects of the mycotoxin, as reflected by intense Bcl-2 immunoreactivity and negligible Bax immunoreactivity. Further, the expression of the CAR gene was enhanced by treatment with the present RSV nanoparticles.
(§2) IHC assay was conducted to estimate the toxic impact of ZEA and the ameliorative effect of RSV and its nano-formulation on the expression of apoptosis-related factors (Bax and Bcl-2).

[2] = tested on: Bcl-2; experiment: IHC assay of apoptosis-related factor Bcl-2 in testis of rats exposed to ZEA; settings: rat testis
Source text: as §1
(§3) Testes sections stained immunohistochemically against Bcl-2 was noticeably higher (brown color) in control group that received distilled water (FIG. 5A), compared with the group that received 0.1 mg/kg of ZEA that have almost no Bcl-2 immunoreactivity (FIG. 5B). […] High Bcl-2 immunoreactivity was detected in the groups that received 10 mg/kg RSV or 10 mg/kg RSV NPs (FIGS. 5E and 5F).

[3] = tested on: apoptosis-related factors (Bax and Bcl-2); experiment: Overall immunohistochemical assessment of apoptosis-related factors (Bax and Bcl-2), mycotoxin-induced apoptosis in rat testis; settings: testis of rats exposed to ZEA and treated
Source text: as §1, §2
as §3, with “5F). […]” for “5F).”

[4] = 0.1 mg/kg ZEA + 10 mg/kg treatment
[5] = 10 mg/kg alone, no ZEA, 10 mg/kg

Oc1ccc(C=Cc2cc(O)cc(O)c2)cc1 [RSV, Resveratrol]
Bax immunoreactivity [1, 4]: moderate to low | Bax immunoreactivity [1, 5]: negative; also recorded: Almost no | Bcl-2 immunoreactivity [2, 4]: moderate | Bcl-2 immunoreactivity [2, 5]: intense and High | effect on apoptosis induced by the mycotoxin (expression of Bax and Bcl-2 factors) [3]: effectively reduced

C[C@H]1CCCC(=O)CCC/C=C/c2cc(O)cc(O)c2C(=O)O1 [ZEA, zearalenone]
Bax immunoreactivity ([1]; 0.1 mg/kg ZEA alone): intense | Bcl-2 immunoreactivity ([2]; 0.1 mg/kg ZEA alone, 0.1 mg/kg): weak and almost no

— US12521353B1, “Encapsulated resveratrol (RSV) nanoparticles” (priority 2024, dated 2026)
